# Columns and labels:
# Format in all cases: in vivo
# souris mâle = experiment: Toxicity, intraperitoneal route; conditions: male mouse, I.P. route
# Description: (§1) On a résumé ci-après les résultats des essais neuro- pshychopharmacologiques qui ont été ertrepris avec le CRL 40883 (produit de l'exemple 1). Dans ces essais le CRL 40883 en solution dans de l'eau distillée à pH 5 a été administré par voie intra- péritonéale sous un volume de 20 ml/kg chez la souris mâle et sous un volume de 5 ml/kg chez le rat mâle.
# • Chez la souris mâle la DL-30 par voie I.P. du CRL 40883 est de l'ordre de 250 mg/kg.
# souris = experiment: Global behaviour and reactivities in the mouse; conditions: i.p.
# Description: as §1
# (§2) • Des lots de 6 animaux sont observés avant, puis 15 minutes, 30 minutes, 1 h , 2 h , 3 h et 24 h après l'administration de CRL 40 883.
# rat = experiment: Global behaviour and reactivities in the rat; conditions: i.p.
# Description: as §1, §2
# [1] = tested on: hypothermies induites par l'apomorphine; experiment: Antagonism of apomorphine-induced hypothermia; conditions: i.p.
# Description: as §1
# [2] = tested on: hypothermies induites par la réserpine; experiment: Antagonism of reserpine-induced hypothermia; conditions: i.p.
# Description: as §1
# [3] = tested on: hypothermies induites par l'oxotrémorine; experiment: Antagonism of oxotremorine-induced hypothermia; conditions: i.p.
# Description: as §1
# [4] = tested on: stéréotypies amphétaminiques; experiment: Amphetamine stereotypies; conditions: i.p.
# Description: as §1
# groupes de souris = experiment: Intergroup aggressiveness test; conditions: groups of mice, i.p., doses 16 mg/kg and 64 mg/kg
# Description: as §1
structure (smiles),measurement,setting,value
"CNCC[S+]([O-])C(c1ccccc1)c1ccccc1 (centres unmarked) [CRL 40883, chlorhydratede N-[2-(benzhydrylsulfinyl)-éthyl]-méthylamine]",DL-30,souris mâle,~250 mg/kg
same,comportement et réactivités,"souris; doses 64 mg/kg, 16 mg/kg, 4 mg/kg and 1 mg/kg, observed 15 min to 24 h",n'entraîne pas de modifications sensibles du comportement et des réactivités
same,sédation,souris; mainly at 128 mg/kg,sédation modérée
same,réactivité au toucher,"rat; 32 mg/kg, lasting 30 minutes",hyporéactivité au toucher
same,tonus musculaire,"rat; 32 mg/kg, lasting 30 minutes",hypotonie musculaire
same,symptômes,"rat; doses 8 mg/kg, 2 mg/kg and 0,5 mg/kg",pas de symptômes particuliers
same,antagonisme des hypothermies induites par l'apomorphine,[1],antagonisme
same,antagonisme des hypothermies induites par la réserpine,[2],antagonisme
same,antagonisme des hypothermies induites par l'oxotrémorine,[3],antagonisme
same,stéréotypies amphétaminiques,[4],potentialisation des stéréotypies amphétaminiques
same,nombre de combats,groupes de souris,forte diminution du nombre de combats
